pIC50: −log10 of the molar value.

From patent publication US20110195951A1, “DIAZAINDOLE DERIVATIVES AND THEIR USE IN THE INHIBITION OF C-JUN N-TERMINAL KINASE” (EISAI R&D MANAGEMENT CO., LTD., priority 2008, published 2011) come the findings set out here.

JNK3, sequence (P53779 whole entry, species assumed): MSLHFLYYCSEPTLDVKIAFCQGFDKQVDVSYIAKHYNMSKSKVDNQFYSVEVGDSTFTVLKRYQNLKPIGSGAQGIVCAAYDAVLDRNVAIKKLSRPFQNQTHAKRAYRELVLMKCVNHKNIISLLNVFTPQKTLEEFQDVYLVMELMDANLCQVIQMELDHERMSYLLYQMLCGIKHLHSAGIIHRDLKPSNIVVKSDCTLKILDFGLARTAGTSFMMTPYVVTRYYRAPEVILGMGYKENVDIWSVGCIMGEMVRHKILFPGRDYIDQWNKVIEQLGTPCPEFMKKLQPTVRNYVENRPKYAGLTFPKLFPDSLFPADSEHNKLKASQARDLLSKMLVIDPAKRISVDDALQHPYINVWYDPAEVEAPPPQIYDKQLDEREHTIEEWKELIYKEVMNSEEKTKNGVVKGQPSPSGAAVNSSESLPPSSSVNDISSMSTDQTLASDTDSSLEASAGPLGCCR

For the assay, the target named is JNK3 (Homo sapiens, UniProt P53779). The experiment in a line: JNK3 SPA assay (phosphorylation of GST-c-Jun). It counts as biochemical. The settings on record: 3.33 μM ATP, GST-c-Jun substrate, 30 minutes at room temperature, read-out: IC50 values for compounds (I) against JNK3. The method, then:
JNK1, JNK2, JNK3—SPA Assay
• 1. The compound was dissolved in DMSO to a convenient concentration and this was diluted in 10% DMSO to a five times concentrate of the desired starting concentration (frequently 1:100). • 2. 10 μl of 500 mM EDTA was added to alternative wells of the Opti-plate row, which would receive kinase reaction plus DMSO. This created the negative control. • 3. For the JNK2 and JNK3 assay, compounds were prepared in six 2-fold dilutions with water and each concentration is tested in duplicate. For the JNK1 assay compounds are prepared in four 5-fold dilutions with water which are tested in triplicate. Controls were treated identically. • 4. […] per well of each compound concentration was transferred to an Opti-plate, in duplicate. • 5. 30 μl (JNK2/3 SPA) or 50 μl (JNK1 SPA) of substrate solution (25 mM HEPES pH 7.5, 10 mM magnesium acetate with 3.33 μM ATP (JNK2/3) or 2 μM ATP (JNK1), approximately 7.5 kBq [γ-^33P] ATP, GST-c-Jun, in water) was added to each well. • 6. 50 μl (JNK2/3 SPA) or 30 μl (JNK1 SPA) of kinase solution (JNK in 25 mM HEPES pH 7.5, 10 mM Mg Acetate) was added to each well.
• 7. The plate was incubated for 30 minutes at room temperature. • 8. 100 μl of bead/stop solution was added to each well (5 mg/ml glutathione-PVT-SPA beads, 40 mM ATP in PBS). • 9. Plates were sealed and incubated for 30 minutes at room temperature, centrifuged for 10 minutes at 2500 g and counted. • 10. The IC50 values were calculated as the concentration of the compound being tested at which the phosphorylation of c-Jun was decreased to 50% of the control value.
Regarding `Cn1cc(-c2n[nH]c3ncc(C4CCCCC4)cc23)cn1` [Example 1, 5-cyclohexyl-3-(1-methyl-1H-pyrazol-4-yl)-1H-pyrazolo[3,4-b]pyridine], the pIC50 (as a rule, the IC50 on a negative log10 scale, so that one unit is a factor of ten) is 5.77.
Next, `Cn1cc(-c2n[nH]c3ncc([C@H]4CC[C@H](N5CCCOCC5)CC4)cc23)cn1` [Example 2, 4-((1r,4r)-4-(3-(1-methyl-1H-pyrazol-4-yl)-1H-pyrazolo[3,4-b]pyridin-5-yl)cyclohexyl)-1,4-oxazepane]: < 5.70; `Cn1cc(-c2n[nH]c3ncc([C@H]4CC[C@@H](N5CCCOCC5)CC4)cc23)cn1` [Example 3, 4-((1s,4s)-4-(3-(1-methyl-1H-pyrazol-4-yl)-1H-pyrazolo[3,4-b]pyridin-5-yl)cyclohexyl)-1,4-oxazepane]: < 5.70.
For the compound `Cn1cc(-c2c[nH]c3ncc(C4CCCCC4)nc23)cn1` [Example 4, 2-cyclohexyl-7-(1-methyl-1H-pyrazol-4-yl)-5H-pyrrolo[3,2-b]pyrazine], the negative logarithm of the IC50 (pIC50) was 6.75.
